{"source": "patent US7662851B2", "about": "“Use of specific cyklolignans” (Axelar AB, priority 2001, dated 2010)", "key": {"[1]": {"target": "T1, epidermal growth factor receptor (EGFR) (Homo sapiens, UniProt P00533)", "T1 construct": "endogenous in cells; host or cells: FM55 melanoma cells", "T1 sequence (P00533 25-1210)": "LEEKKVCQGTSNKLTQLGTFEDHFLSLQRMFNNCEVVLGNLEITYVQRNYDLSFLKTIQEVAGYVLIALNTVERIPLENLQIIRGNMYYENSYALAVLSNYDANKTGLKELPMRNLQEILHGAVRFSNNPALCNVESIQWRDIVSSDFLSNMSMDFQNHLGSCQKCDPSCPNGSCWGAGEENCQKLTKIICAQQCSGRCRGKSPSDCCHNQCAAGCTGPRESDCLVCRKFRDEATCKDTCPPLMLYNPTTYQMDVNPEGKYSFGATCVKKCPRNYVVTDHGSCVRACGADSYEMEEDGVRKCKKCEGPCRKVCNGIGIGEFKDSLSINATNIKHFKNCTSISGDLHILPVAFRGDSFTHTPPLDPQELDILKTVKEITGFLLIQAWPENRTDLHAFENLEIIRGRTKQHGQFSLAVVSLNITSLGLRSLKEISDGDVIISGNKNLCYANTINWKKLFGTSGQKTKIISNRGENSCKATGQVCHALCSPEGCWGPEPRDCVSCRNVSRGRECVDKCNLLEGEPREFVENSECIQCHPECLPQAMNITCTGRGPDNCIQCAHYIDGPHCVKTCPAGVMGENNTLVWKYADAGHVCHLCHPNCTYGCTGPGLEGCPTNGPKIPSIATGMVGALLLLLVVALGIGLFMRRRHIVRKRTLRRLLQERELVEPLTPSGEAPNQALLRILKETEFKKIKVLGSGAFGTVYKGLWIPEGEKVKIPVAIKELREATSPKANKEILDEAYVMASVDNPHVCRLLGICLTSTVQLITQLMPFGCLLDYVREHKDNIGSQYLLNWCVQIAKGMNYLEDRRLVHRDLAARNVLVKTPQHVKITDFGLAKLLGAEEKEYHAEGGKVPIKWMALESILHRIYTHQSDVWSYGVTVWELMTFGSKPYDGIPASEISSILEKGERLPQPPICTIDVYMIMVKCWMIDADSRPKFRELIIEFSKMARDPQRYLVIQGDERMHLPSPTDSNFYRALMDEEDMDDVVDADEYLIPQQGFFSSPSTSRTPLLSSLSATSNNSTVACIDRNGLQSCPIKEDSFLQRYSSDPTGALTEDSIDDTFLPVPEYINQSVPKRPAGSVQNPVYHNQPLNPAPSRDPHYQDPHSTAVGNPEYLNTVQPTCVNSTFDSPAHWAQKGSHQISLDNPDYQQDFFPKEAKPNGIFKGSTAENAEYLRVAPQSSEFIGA", "assay": "Tyrosine phosphorylation of EGFR in intact FM55 melanoma cells", "type": "cell-based", "settings": "0.05 μM, 1 h", "experimental": "(§1) Cells were cultured to subconfluency in 6-cm plates, and then fresh medium containing 10% FBS and the desired compounds were added for 1 h. The cells were then lyzed and subjected to immunoprecipitation using specific antibodies. Immunoprecipitates were resolved by sodium dodecyl sulphate polyacrylamide gel electrophoresis (SDS-PAGE) and transferred to nitro-cellulose membranes and incubated with anti-phosphotyrosine antibody. Antibodies to actin (in cell extract) or IGF-1R beta subunit were used as loading controls. After detection the films were scanned for quantification.\n(§2) FM55 melanoma cells were cultured in the same way as described in Experiment 1. When reaching a density of 65,000 cells/cm^2 in the dishes, they were treated for 1 h with 0 (control) and 0.05 μM of picropodophyllin and podophyllotoxin, respectively. The cells were then isolated and subjected to immunoprecipitation of the IGF-1R, fibroblast growth factor receptor (FGFR), platelet-derived growth factor receptor (PDGFR), epidermal growth factor receptor (EGFR), insulin receptor (IR) and insulin substrate-1 (IRS-1) using antibodies to respective molecules. IRS-1 is a substrate of IGF-1R, and therefore its phosphorylation is dependent on phosphorylated IGF-1R. Gelelectrophoresis, Western blotting and quantification of the different signals were performed as described above."}, "insulin receptor (IR)": {"target": "T2, insulin receptor (IR) (Homo sapiens, UniProt P06213)", "T2 construct": "endogenous in cells; host or cells: FM55 melanoma cells", "T2 sequence (P06213 28-1382)": "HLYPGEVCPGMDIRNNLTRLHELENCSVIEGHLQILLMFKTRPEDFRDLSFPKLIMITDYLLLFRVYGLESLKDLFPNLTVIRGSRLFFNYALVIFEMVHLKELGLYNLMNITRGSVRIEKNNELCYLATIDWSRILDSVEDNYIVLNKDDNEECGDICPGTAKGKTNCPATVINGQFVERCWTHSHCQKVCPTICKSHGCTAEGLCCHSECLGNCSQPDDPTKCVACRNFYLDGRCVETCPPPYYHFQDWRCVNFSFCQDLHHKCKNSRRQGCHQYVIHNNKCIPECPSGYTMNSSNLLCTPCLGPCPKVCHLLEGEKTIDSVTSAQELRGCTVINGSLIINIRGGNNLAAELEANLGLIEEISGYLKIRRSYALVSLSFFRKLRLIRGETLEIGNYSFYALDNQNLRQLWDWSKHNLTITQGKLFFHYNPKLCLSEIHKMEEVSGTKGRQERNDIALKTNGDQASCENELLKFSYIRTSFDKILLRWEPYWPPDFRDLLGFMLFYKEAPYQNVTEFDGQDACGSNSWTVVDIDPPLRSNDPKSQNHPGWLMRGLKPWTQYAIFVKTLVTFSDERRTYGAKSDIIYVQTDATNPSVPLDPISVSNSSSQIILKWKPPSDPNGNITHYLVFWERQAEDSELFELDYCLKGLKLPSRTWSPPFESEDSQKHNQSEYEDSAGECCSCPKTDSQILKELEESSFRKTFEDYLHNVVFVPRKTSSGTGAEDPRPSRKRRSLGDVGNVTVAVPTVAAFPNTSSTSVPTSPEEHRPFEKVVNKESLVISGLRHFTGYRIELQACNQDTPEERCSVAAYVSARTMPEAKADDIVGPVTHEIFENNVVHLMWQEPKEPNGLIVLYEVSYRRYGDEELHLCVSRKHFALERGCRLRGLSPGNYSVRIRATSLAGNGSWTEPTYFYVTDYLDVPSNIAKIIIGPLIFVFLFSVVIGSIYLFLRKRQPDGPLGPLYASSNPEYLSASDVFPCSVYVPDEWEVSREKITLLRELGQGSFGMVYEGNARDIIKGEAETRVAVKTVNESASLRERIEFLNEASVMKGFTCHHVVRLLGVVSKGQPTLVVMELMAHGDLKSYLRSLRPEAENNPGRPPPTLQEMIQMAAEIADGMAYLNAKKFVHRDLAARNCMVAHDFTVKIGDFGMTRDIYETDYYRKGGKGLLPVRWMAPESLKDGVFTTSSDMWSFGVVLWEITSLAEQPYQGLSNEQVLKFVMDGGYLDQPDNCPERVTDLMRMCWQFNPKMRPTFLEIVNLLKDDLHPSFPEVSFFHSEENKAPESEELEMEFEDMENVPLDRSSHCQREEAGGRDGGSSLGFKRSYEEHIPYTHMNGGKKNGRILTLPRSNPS", "assay": "Tyrosine phosphorylation of IR in intact FM55 melanoma cells", "type": "cell-based", "settings": "0.05 μM, 1 h", "experimental": "as §1, §2"}, "HepG2 hepatoma cell line": {"system": "HepG2 hepatoma cell line", "assay": "Cell viability (XTT), HepG2", "type": "cell-based", "experimental": "(§3) Cell proliferation kit II (Roche Inc.) is based on colorimetric change of the yellow tetrazolium salt XTT in orange formazan dye by the respiratory chain of viable cells (Roehm, N W, et al., J Immunol Methods 142:257-265, 1991). Cells seeded at a concentration of 5000/well in 100 μl medium in a 96-well plate were treated with different drugs in the given concentration. After 24 or 48 h the cells were incubated, according to the manufacturer's protocol, with XTT labelling mixture. After 4 h the formazan dye is quantified using a scanning multiwell spectrophotometer with a 495-nm filter. The absorbance is directly correlated with the number of viable cells. The standard absorbance curve was drawn by means of untreated cells seeded at a concentration of from 1000 to 10 000 cells/well with an increasing rate of 1000 cells/well. All standards and experiments were performed in triplicates.\n(§4) 12 different types of cell lines were seeded in 96-well plates (medium volume in a well was 100 μl), at a concentration of 10,000 cells/cm^2 in Minimal Essential Medium supplemented with fetal calf serum. When the cells had reached a concentration of 65,000 cells/cm^2, they were treated with different doses of podophyllotoxin and picropodophyllin for 48 h. Cell viability was then assayed (see above). […]"}, "FM55 melanoma cell line": {"system": "FM55 melanoma cell line", "assay": "Cell viability (XTT), FM55", "type": "cell-based", "settings": "read-out: EC50 for cell viability", "experimental": "as §3, §4"}, "[2]": {"system": "fibroblast growth factor receptor (FGFR)", "assay": "Tyrosine phosphorylation of FGFR in intact FM55 melanoma cells", "type": "cell-based", "settings": "0.05 μM, 1 h", "experimental": "as §1, §2"}, "[3]": {"system": "MCF-7 breast cancer cell line", "assay": "Cell viability (XTT), MCF-7", "type": "cell-based", "settings": "Homo sapiens, read-out: EC50 for cell viability", "experimental": "as §3, §4"}, "[4]": {"system": "SK-MEL-5 melanoma cell line", "assay": "Cell viability (XTT), SK-MEL-5", "type": "cell-based", "experimental": "as §3, §4"}, "[5]": {"assay": "Local toxicity, subcutaneous osmotic pumps in nude mice", "type": "in vivo", "design": "key to Local toxicity: effects on skin and subcutaneous tissue: 0: no tissue reaction; *: light tissue reaction with hyperemia and mild inflammation; **: moderate tissue reaction with strong inflammation; ***: strong tissue reaction with necrosis and bleedings", "settings": "7 days; for Local tissue reactions: subcutaneous osmotic pump loaded with 0.25 mg", "experimental": "Control mice were treated with the solvent. 3-6 animals were treated in each group.\nThe first set of experiments was carried out to investigate possible local and systemic toxic effects of podophyllotoxin, deoxypodophyllotoxin and picropodophyllin on nude mice. In the first experiment osmotic pumps loaded with either drug-free solvent, podophyllotoxin (0.25 mg), deoxypodophyllotoxin (0.25 mg) or picropodophyllin (0.25 mg) were implanted subcutaneously in the flank region. The drugs are delivered subcutaneously with a constant flow of 0.6 μl/h over 7 days. The volume of the pumps was 100 μl. After 7 days the mice were killed and the skin and subcutaneous tissue adjacent to the outlet of the pumps were analyzed and scored for tissue reactions by an experienced pathologist. There were 3 mice in each group."}, "[6]": {"system": "insulin substrate-1 (IRS-1)", "assay": "Phosphorylation of IRS-1 in intact FM55 melanoma cells", "type": "cell-based", "settings": "0.05 μM, 1 h", "experimental": "as §1, §2"}, "IGF-1R": {"target": "IGF-1R (Homo sapiens, UniProt P08069)", "sequence (P08069 31-1367)": "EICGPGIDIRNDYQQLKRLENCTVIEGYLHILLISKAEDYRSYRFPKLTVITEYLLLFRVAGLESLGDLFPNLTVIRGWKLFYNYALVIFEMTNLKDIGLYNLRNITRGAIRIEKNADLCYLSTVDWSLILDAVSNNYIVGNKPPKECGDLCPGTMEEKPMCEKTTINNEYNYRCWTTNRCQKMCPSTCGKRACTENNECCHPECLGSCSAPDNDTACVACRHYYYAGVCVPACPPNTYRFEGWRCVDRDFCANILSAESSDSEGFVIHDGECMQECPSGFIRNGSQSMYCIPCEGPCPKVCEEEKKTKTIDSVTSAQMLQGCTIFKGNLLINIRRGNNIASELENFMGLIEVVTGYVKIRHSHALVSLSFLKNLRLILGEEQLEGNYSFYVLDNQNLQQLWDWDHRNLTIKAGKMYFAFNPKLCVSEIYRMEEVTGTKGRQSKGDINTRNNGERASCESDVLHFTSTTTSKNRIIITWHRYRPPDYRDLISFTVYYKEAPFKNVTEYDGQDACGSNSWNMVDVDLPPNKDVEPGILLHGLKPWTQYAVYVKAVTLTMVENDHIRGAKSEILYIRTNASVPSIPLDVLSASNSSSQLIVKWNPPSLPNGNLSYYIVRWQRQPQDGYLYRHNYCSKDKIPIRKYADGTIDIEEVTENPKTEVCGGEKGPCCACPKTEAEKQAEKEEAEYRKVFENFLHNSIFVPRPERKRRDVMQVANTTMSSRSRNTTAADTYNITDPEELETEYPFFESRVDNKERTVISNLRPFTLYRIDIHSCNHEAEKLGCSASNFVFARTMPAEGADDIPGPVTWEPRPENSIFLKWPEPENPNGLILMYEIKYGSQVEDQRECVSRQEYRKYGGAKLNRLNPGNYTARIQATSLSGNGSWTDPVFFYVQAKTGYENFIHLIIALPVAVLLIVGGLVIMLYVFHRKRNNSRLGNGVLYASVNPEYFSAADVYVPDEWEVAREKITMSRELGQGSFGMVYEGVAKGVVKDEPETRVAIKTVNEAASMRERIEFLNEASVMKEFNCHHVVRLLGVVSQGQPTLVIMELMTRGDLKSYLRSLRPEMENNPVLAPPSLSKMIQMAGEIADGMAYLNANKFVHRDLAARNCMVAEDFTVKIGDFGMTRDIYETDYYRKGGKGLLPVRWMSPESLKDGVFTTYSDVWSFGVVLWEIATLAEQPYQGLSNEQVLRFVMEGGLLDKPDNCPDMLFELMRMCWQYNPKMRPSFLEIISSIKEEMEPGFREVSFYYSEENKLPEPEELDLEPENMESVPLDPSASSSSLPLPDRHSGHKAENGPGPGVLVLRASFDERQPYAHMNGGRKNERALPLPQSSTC", "assay": "IGF-1R phosphorylation in HaCaT cells (psoriasis model)", "type": "cell-based", "design": "expressed in transfected cells; host or cells: P6 cell line (murine fibroblasts overexpressing human IGF-1R); receptor captured on plates with an antibody to the beta subunit", "settings": "0.05 μM, 1 h, control 100", "experimental": "Keratinocytes (HaCaT cells) were provided by and tested in collaboration with Professor Mona Bäckdahl, Department of Dermatology, Karolinska Hospital, Stockholm, Sweden. The HaCaT cell line is a spontaneously immortalized human keratinocyte cell line (Boukamp P, et al., J Cell Biol 106: 761-771, 1988), which is frequently used as an experimental model for psoriasis (Wraight, C. J., et al. Nat Biotechnol 18: 521-526, 2000.) HaCaT cells were cultured in Dulbecco's Modified Eagle's Medium containing 10% fetal bovine serum, glutamine, benzylpenicillin and streptomycin.\nCells were cultured to subconfluency in 6-cm plates, and then fresh medium containing 10% FBS and the desired compounds were added for 1 h. The cells were then lyzed and subjected to immunoprecipitation using specific antibodies. […] After detection the films were scanned for quantification.\nHaCaT cells, which are immortalized human keratinocytes and represent a model cell line for psoriasis, were seeded in 6-cm dishes or in 96-well plates (medium volume in a well was 100 μl), at a concentration of 7,000 cells/cm^2 in Dulbecco's Modified Eagle's Medium containing 10% fetal bovine serum. […] After 1 h incubation the cells in the 6-cm dishes were harvested for assay and quantification of IGF-1R phosphorylation as described in Experiment 1. […]"}}, "note": "Where two headings read alike, the source gives them in different places."}
{"smiles": "COc1cc([C@@H]2c3cc4c(cc3[C@H](O)[C@H]3COC(=O)[C@@H]23)OCO4)cc(OC)c1OC", "note": "[Picropodophyllin, picropodophyllin]", "values": [{"measurement": "Level of phosphorylation in intact cells, substrate EGFR", "setting": "[1]", "value": 106, "unit": "% OD"}, {"measurement": "Level of phosphorylation in intact cells, substrate IR", "setting": "insulin receptor (IR)", "value": 100, "unit": "% OD"}, {"measurement": "EC50", "setting": "HepG2 hepatoma cell line; Homo sapiens, HepG2, 48 h; read-out: EC50 for cell viability", "value": "> 15000", "unit": "nM"}, {"measurement": "EC50", "setting": "FM55 melanoma cell line; FM55, 48 h", "value": 70, "unit": "nM"}, {"measurement": "Level of phosphorylation in intact cells, substrate FGFR", "setting": "[2]", "value": 100, "unit": "% OD"}, {"measurement": "EC50", "setting": "[3]; MCF7, MCF-7, 48 h", "value": 90, "unit": "nM"}, {"measurement": "EC50", "setting": "[4]; Homo sapiens, SK-MEL-5, 48 h; read-out: EC50 for cell viability", "value": 50, "unit": "nM"}, {"measurement": "Local tissue reactions", "setting": "[5]", "value": "no visible reactions"}, {"measurement": "Local toxicity: effects on skin and subcutaneous tissue", "setting": "[5]; subcutaneous osmotic pump, 7 mg/kg/d", "value": 0}, {"measurement": "Level of phosphorylation in intact cells, substrate IRS-1", "setting": "[6]", "value": 17, "unit": "% OD"}, {"measurement": "IGF-1R phosphorylation", "setting": "IGF-1R", "value": 35}]}
{"smiles": "COc1cc([C@@H]2c3cc4c(cc3[C@H](O)[C@H]3COC(=O)[C@H]23)OCO4)cc(OC)c1OC", "note": "[Podophyllotoxin, podophyllotoxin]", "values": [{"measurement": "Level of phosphorylation in intact cells, substrate EGFR", "setting": "[1]", "value": 107, "unit": "% OD"}, {"measurement": "Level of phosphorylation in intact cells, substrate IR", "setting": "insulin receptor (IR)", "value": 101, "unit": "% OD"}, {"measurement": "EC50", "setting": "HepG2 hepatoma cell line; Homo sapiens, HepG2, 48 h, read-out: EC50 for cell viability", "value": "> 15000", "unit": "nM"}, {"measurement": "EC50", "setting": "FM55 melanoma cell line; 48 h", "value": 40, "unit": "nM"}, {"measurement": "Level of phosphorylation in intact cells, substrate FGFR", "setting": "[2]", "value": 105, "unit": "% OD"}, {"measurement": "EC50", "setting": "[3]; MCF7, 48 h", "value": 70, "unit": "nM"}, {"measurement": "EC50", "setting": "[4]; Homo sapiens, SK-MEL-5, 48 h, read-out: EC50 for cell viability", "value": 20, "unit": "nM"}, {"measurement": "Local tissue reactions", "setting": "[5]", "value": "severe tissue reactions with necrosis, bleeding and inflammation"}, {"measurement": "Level of phosphorylation in intact cells, substrate IRS-1", "setting": "[6]", "value": 10, "unit": "% OD"}, {"measurement": "IGF-1R phosphorylation", "setting": "IGF-1R", "value": 45}]}
